Where two headings read alike, the source gives them in different places.
What was measured:
Parameters in all cases: species or system Lymantria dispar
L. dispar PBP 1 = assay: Pheromone-binding protein (PBP) ligand binding assay, PBP1
Procedure, shortened: (§1)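 L. dispar PBP1 or PBP2 equilibrated overnight in buffer with test compound or mini-library; free ligand removed by size-exclusion chromatography on P2 gel. Total and protein-bound ligand extracted and quantified by GC-MS per component; % bound = 100×[PBP·L]/[L]tot.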

L. dispar PBP 2 = assay: Pheromone-binding protein (PBP) ligand binding assay, PBP2
Procedure, shortened: as §1

[1] = test system: male gypsy moth antenna response to pheromone (+)-1; assay: EAG short-term (STI) and long-term (LTI) inhibition of pheromone signaling (Example 5); conditions: for inhibition at 0.001 mg / inhibition at 0.01 mg / inhibition at 0.1 mg / inhibition at 100 µg, 0.1 mg: Lymantria dispar, mean ± S.E.; for inhibition at 0.001 mg: mixed plume (+)-1 100 ng + compound 1 μg; for inhibition at 0.001 mg / inhibition at 0.01 mg / inhibition at 0.1 mg: negative = enhancement, read-out: Activity (%): short-term inhibition (STI); for inhibition at 0.01 mg: mixed plume (+)-1 100 ng + compound 10 μg; for inhibition at 0.1 mg: mixed plume (+)-1 100 ng + compound 100 μg (puff v); for inhibition at 100 µg, 0.1 mg: pure (+)-1 100 ng plume following mixed plume with 100 μg compound, read-out: Activity (%): long-term inhibition (LTI)
Procedure, shortened: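 Excised male gypsy moth antenna in saline pH 6.8 under purified air (300 mL/min); 0.3 s puffs: air, (+)-1 100 ng, (+)-1 plus compound 1, 10, 100 μg per cartridge, then (+)-1 alone. STI: mixed-puff air-corrected depolarization loss versus first pheromone puff; LTI: final pheromone-puff loss.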

[2] = member tested within library 3c{1, 1-5}
[3] = tested as single compound, means ± S.E., 4 replicates
[4] = member tested within library 3c{3, 1-5}
[5] = member tested within library 3c{3, 1-5}, Nd = not detected in GC-MS
[6] = member tested within library 3c{2, 1-5}
[7] = member tested within library 3c{5, 1-5}

SMILES | PBP1 (% bound) (L. dispar PBP 1; [2]) | PBP1 (% bound) (L. dispar PBP 1; [3]) | PBP2 (% bound) (L. dispar PBP 2; [2]) | PBP2 (% bound) (L. dispar PBP 2; [3]) | inhibition at 0.001 mg [1] | inhibition at 0.01 mg [1] | inhibition at 0.1 mg [1] | inhibition at 100 µg, 0.1 mg [1] | PBP1 (% bound) (L. dispar PBP 1; [4]) | PBP2 (% bound) (L. dispar PBP 2; [5]) | PBP1 (% bound) (L. dispar PBP 1; [6]) | PBP2 (% bound) (L. dispar PBP 2; [6]) | long-term inhibition (LTI) activity (in words) [1] | long-term inhibition (LTI) activity (in words) ([1]; listed as 3c{2, 3}) | PBP1 (% bound) (L. dispar PBP 1; [7]) | PBP2 (% bound) (L. dispar PBP 2; [7])
COc1ccc(OC)cc1 [3c{1,1}, 1,4-Dimethoxy benzene] | 24 ± 0.3% | 40 ± 2.5% | 19 ± 0.9% | 13 ± 2.1% | 24 ± 8% | 23 ± 9% | 15 ± 25% | -7 ± 10% | – | – | – | – | – | – | – | –
CCCOc1ccc(OC)cc1 [3c{1,3}, 1-methoxy-4-propoxy-benzene] | 7 ± 0.5% | – | 5 ± 2.1% | – | 28 ± 16% | -2 ± 5% | 48 ± 14% | 39 ± 12% | 13 ± 0.3% | 7 ± 0.2% | – | – | – | – | – | –
CCOc1ccc(OCC)cc1 [3c{2,2}, 1,4-Diethoxy benzene] | – | 28 ± 0.1% | – | 19 ± 0.2% | 7 ± 12% | -19 ± 8% | -27 ± 15% | 17 ± 11% | – | – | 14 ± 0.5% | 33 ± 0.6% | – | – | – | –
CCCOc1ccc(OCC)cc1 [3c{2,3}, 1-ethoxy-4-propoxy benzene] | – | – | – | – | 8 ± 20% | -30 ± 10% | -62 ± 50% | 58 ± 7% | 13 ± 0.3% | 6 ± 0.2% | 10 ± 0.3% | 22 ± 0.3% | strongest long-term inhibitor | most active | – | –
CCCOc1ccc(OCCC)cc1 [3c{3,3}, 1,4-Dipropoxy benzene] | – | 15 ± 0.7% | – | 5 ± 0.2% | -3 ± 13% | -60 ± 38% | -100 ± 40% | 29 ± 13% | 4 ± 0.3% | 3 ± 0.1% | – | – | – | – | – | –
CC(C)CCOc1ccc(OCCC(C)C)cc1 [3c{5,5}, 1,4-Di-(3-methyl-butyloxy) benzene] | – | 9 ± 0.7% | – | 8 ± 0.2% | 41 ± 14% | 4 ± 26% | 50 ± 9% | 7 ± 4% | – | – | – | – | – | – | 5 ± 0.1% | 1 ± 0.1%

— US9497963B2, “Methods and compositions for control of gypsy moth, Lymantria dispar” (Simon Fraser University, priority 2008, dated 2016)
